Legend:
[1] = Example 6: phase 1 trial, 0.5 mg enavogliflozin in type 2 diabetes patients grouped by eGFR: urinary glucose excretion (UGE) and eGFR; type: in vivo, human
Description: The subjects were divided into the following four groups according to eGFR values, and urinary glucose excretion (UGE) and eGFR were estimated according to the administration of 0.5 mg of enavogliflozin as the test drug (stages 1 and 3: repeated administration (1 week), stages 2 and 4: single administration).

[2] = Example 7: SD rats treated with streptozotocin (diabetic nephropathy model), oral once a day for 12 weeks: urinary albumin, GS score, TA score; type: in vivo
Description: Accordingly, 60 mg/kg of streptozotocin was administered intravenously to the SD rats and used as an animal model of diabetic nephropathy.

SMILES: OC[C@H]1O[C@@H](c2cc(Cc3ccc(C4CC4)cc3)c(Cl)c3c2CCO3)[C@H](O)[C@@H](O)[C@@H]1O [Enavogliflozin, (2S,3R,4R,5S,6R)-2-(7-chloro-6 (4-cyclopropylbenzyl)-2,3-dihydrobenzofuran-4-yl)-6-(hydroxymethyl)tetrahydro-2H-pyran-3,4,5-triol]
- Urinary glucose excretion (UGE) after administration ([1]; all renal function groups): increased
- Change in eGFR ([1]; patient group with 30≤eGFR<60): eGFR reduction was confirmed
- Reduction of proteinuria compared with other SGLT2 inhibitors ([2]; same dose groups (1 mg/kg)): most excellent effect in reducing proteinuria
- TA score (tubular atrophy) ([2]; week 12): significant dose-dependent decrease in tubular atrophy
- GS score (glomerulosclerosis) ([2]; week 12, all enavogliflozin-administered groups): trend toward a decrease in the GS score
- Urinary albumin concentration (proteinuria) ([2]; weeks 4, 8 and 12): dose-dependent decrease in proteinuria

From patent US20260130933A1, “PHARMACEUTICAL COMPOSITION FOR PREVENTION OR TREATMENT OF NEPHROPATHY AND/OR DIABETES MELLITUS, COMPRISING ENAVOGLIFLOZIN” (DAEWOONG PHARMACEUTICAL CO., LTD., priority 2022, published 2026)
